According to patent US8470344B2, “Aqueous dispersions and solutions of difficult to dissolve materials and methods of their preparation” (Teva Pharmaceutical Industries Ltd., priority 2005, dated 2013):

Legend:
[1] = Dissolving or dispersing the compound-covered substrate matrix (dry powder) in water; type: physicochemical
Procedure: 1 mL of the Latanoprost solution (6.4 mg/mL) in ethanol was added to a mixture of NaH2PO4*H2O (0.553 g) and Na2HPO4 (0.564 g). The resulting mixture was dried under reduced pressure at room temperature to yield dry powder particles having latanoprost on the surface thereof. The dry powder was dissolved in water (120 mL) to form a solution. Benzalkonium chloride was added to the solution.
Latanoprost (17.97 mg) was dissolved in acetonitrile (5 mL). 1.5 mL of this solution were added to mixture of NaH2PO4 (0.464 g) and Na2HPO4 (0.469 g). The resulting mixture was dried under reduced pressure to obtain a dry powder. 50 mL of water were added to dry powder and stirred during 5 minutes. A fine suspension of Latanoprost with concentration about 0.01% (w/v) was obtained. 50 mL of water, containing Benzalkonium chloride and sodium chloride, were added to this suspension and stirred. The obtained clear solution of Latanoprost had concentration 0.005% (w/v).
Dexamethasone (104.05 mg) was dissolved in acetonitrile (5 mL). 1 mL of this solution was added to 545 mg of NaH2PO4*H2O and the mixture was dried in a reduced pressure for 15 hours. 20 mL of water were added and mixture was stirred. A fine suspension of dexamethasone (concentration about 0.1% w/v) was obtained.

[2] = Comparative example: direct dissolution of latanoprost in water containing NaH2PO4 with stirring; type: physicochemical
Procedure: Latanoprost (5.621 mg) was dissolved in water (100 mL), containing NaH2PO4 (0.463 g). The mixture was stirred for 120 minutes.
The mixture from Example 3 was heated at 40° C. with stirring for 120 minutes. A solution of Latanoprost with concentration 0.00407% (w/v, or 81.4% of target concentration 0.005%) was obtained.

- content of Latanoprost in resultant solution ([1]; Example 1: ethanol solution dried on NaH2PO4*H2O/Na2HPO4, powder dissolved in water (120 mL), benzalkonium chloride added, room temperature): 0.005 % (w/v)
- appearance and stability of resultant solution ([1]; Example 1: powder dissolved in water (120 mL), benzalkonium chloride added): transparent and stable
- concentration of fine suspension of Latanoprost ([1]; Example 2: acetonitrile solution dried on NaH2PO4/Na2HPO4, 50 mL water, stirred 5 minutes): about 0.01 % (w/v)
- concentration of obtained clear solution of Latanoprost ([1]; Example 2: after further 50 mL water containing benzalkonium chloride and sodium chloride): 0.005 % (w/v)
- Latanoprost concentration of aqueous solution ([2]; Example 3 (comparative): 5.621 mg in water (100 mL) with NaH2PO4, stirred 120 minutes): 0.00015 % (w/v)
- percent of target concentration of 0.005% ([2]; Example 3 (comparative): stirred 120 minutes, no heating): 30%
- percent of target concentration 0.005% ([2]; Example 4 (comparative): heated at 40° C. with stirring for 120 minutes): 81.4%
- concentration of solution of Latanoprost ([2]; Example 4 (comparative): mixture from Example 3 heated at 40° C. with stirring for 120 minutes): 0.00407 % (w/v)
SMILES: CC(C)OC(=O)CCC/C=C\C[C@@H]1[C@@H](CC[C@@H](O)CCc2ccccc2)[C@H](O)C[C@@H]1O [Latanoprost, Isopropyl (Z)-7-{(1R,2R,3R,5S)-3,5-dihydroxy-2-[3(R)-(3-hydroxyl-5-phenyl)pentyl]cyclopentyl}-5-heptenoate]
